Test results published in paper PMC9837035 (Nature Communications, 2023).
Several values for one entry are separate records, joined by “and”; a condition that tells them apart may be missing. Equal values may be shown once. Read-outs that look alike come from different tables or passages of the source.

Tests used:
PRDM9 = target: T1, PRDM9 (Homo sapiens, UniProt Q9NQV7); test: Radioisotope-based methyltransferase assay (selectivity); type: biochemical; details: read-out: IC50
T1 construct: purchased Reaction Biology
T1 sequence (Q9NQV7 whole entry): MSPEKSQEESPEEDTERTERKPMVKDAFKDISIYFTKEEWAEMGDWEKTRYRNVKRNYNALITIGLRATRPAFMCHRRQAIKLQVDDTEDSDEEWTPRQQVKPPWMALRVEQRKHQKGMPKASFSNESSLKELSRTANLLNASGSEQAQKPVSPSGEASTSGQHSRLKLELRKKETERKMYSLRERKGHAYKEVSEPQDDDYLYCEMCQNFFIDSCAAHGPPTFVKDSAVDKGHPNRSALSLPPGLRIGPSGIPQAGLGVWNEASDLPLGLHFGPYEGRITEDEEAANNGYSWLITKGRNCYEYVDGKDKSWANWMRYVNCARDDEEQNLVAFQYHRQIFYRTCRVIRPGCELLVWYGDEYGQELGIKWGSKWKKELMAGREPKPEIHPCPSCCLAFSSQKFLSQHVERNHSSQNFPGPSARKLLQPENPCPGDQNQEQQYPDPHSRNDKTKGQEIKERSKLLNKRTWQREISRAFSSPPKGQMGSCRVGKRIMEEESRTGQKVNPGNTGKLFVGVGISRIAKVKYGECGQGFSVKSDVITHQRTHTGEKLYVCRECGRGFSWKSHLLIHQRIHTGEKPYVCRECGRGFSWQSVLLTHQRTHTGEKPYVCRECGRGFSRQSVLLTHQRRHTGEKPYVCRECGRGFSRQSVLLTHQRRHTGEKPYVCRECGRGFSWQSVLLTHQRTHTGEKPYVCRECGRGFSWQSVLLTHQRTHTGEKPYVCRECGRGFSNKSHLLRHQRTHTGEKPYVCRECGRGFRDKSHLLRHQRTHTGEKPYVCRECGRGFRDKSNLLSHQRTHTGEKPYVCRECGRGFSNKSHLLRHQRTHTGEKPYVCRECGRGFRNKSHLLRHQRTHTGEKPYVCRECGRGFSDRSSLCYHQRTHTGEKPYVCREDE

NSD2 = NSD2 (Homo sapiens, UniProt O96028)
NSD2, sequence (O96028 whole entry): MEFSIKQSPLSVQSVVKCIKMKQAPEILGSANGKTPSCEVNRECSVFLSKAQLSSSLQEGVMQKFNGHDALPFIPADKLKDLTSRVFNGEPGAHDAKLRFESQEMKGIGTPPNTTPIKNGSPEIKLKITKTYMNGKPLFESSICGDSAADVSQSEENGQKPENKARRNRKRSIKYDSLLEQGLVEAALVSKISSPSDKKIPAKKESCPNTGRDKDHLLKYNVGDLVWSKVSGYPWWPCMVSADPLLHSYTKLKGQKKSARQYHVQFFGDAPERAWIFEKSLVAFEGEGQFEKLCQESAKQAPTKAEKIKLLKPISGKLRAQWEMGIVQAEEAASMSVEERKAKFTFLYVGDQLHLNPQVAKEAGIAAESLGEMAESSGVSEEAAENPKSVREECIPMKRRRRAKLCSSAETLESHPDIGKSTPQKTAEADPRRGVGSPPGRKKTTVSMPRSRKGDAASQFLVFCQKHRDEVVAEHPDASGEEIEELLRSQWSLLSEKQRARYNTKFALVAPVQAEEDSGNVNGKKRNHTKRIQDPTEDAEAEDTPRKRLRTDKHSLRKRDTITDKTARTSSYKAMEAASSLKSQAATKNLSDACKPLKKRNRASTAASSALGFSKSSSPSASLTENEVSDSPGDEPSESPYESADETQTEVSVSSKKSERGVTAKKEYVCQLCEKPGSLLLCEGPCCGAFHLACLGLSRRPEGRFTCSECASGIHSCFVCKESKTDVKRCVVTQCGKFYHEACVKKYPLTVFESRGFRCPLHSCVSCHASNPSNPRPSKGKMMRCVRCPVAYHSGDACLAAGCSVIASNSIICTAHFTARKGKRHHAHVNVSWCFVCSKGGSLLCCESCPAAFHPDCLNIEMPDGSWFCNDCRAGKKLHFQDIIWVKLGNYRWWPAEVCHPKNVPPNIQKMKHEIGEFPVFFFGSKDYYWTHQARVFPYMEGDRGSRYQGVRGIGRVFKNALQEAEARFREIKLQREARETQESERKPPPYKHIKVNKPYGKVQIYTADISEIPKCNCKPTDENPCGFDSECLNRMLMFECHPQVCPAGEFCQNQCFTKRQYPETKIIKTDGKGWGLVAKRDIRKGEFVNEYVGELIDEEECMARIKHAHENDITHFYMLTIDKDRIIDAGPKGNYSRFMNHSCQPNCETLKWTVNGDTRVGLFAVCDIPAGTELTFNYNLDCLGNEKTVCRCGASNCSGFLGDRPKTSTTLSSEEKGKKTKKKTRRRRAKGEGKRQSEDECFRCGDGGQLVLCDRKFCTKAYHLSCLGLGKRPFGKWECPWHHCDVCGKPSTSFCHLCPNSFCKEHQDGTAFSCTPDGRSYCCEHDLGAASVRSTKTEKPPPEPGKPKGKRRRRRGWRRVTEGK

DOT1L = target: T2, DOT1L (Homo sapiens, UniProt Q8TEK3); test: Radioisotope-based methyltransferase assay (selectivity); type: biochemical
T2 construct: purchased Reaction Biology
T2 sequence (Q8TEK3 whole entry): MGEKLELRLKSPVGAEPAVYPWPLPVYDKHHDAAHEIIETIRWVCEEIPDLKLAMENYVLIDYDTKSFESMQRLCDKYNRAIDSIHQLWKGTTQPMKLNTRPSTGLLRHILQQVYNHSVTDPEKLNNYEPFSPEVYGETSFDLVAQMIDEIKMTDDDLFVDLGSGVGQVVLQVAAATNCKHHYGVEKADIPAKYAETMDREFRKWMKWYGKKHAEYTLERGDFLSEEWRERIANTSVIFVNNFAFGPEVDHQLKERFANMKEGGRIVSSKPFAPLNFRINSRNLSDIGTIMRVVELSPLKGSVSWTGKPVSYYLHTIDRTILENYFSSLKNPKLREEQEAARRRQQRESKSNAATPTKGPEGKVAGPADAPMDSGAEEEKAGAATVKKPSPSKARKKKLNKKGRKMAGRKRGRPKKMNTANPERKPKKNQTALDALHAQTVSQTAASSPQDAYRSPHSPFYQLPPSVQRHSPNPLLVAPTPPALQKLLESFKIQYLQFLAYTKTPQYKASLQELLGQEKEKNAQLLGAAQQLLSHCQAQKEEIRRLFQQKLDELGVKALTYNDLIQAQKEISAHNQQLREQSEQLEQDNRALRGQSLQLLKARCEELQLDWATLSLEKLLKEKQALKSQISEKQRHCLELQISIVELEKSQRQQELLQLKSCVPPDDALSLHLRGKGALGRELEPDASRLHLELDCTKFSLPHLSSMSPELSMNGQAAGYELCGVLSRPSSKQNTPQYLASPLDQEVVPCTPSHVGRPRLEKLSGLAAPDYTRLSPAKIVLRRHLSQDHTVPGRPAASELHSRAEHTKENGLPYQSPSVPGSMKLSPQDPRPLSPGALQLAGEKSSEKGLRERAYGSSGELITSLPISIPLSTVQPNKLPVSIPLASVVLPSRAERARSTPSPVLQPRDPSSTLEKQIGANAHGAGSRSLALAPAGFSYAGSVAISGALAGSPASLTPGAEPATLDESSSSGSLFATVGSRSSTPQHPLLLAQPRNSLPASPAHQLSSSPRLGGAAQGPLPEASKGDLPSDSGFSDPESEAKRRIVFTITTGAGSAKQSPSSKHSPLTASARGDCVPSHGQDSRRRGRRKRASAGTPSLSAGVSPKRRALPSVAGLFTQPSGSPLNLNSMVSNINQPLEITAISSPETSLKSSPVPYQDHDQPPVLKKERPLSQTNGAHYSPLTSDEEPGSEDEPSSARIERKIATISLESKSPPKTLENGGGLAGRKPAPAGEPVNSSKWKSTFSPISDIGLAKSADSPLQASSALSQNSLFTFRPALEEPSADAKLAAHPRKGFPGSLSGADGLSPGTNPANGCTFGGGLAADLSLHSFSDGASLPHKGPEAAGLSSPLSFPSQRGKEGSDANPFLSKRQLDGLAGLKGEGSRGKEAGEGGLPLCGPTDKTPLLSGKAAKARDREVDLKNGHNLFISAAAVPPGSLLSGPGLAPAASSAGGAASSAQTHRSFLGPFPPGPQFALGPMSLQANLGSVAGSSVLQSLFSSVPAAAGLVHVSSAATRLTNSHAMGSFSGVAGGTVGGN

[1] = system: Salmonella typhimurium TA98; test: Ames test, TA98
Experimental: The Salmonella mutagenicity assay was performed by pre-incubating the test compounds for 20 min with Salmonella typhimurium strains TA98 and TA100, with and without metabolic activation (S9 mixture).
After this time 2 mL of top agar was added to the mixture and poured on to a plate containing minimum agar. The plates were incubated at 37 °C for 49 h and the His ± revertant colonies were counted manually and automatically by a colony counter (Colony analyzer CA-11D systems, System science Co.,Ltd.). The influence of metabolic activation was tested by adding 500 μL of 10% S9 mixture. All experiments were performed in duplicate. […] DMSO served as the negative control (100 μL/plate). The mutagenic index (MI, the average number of revertants per plate divided by the average number of revertants per plate from the negative control) was also calculated for each dose. A sample was considered positive when the MI was equal to or greater than 2 for at least one of the tested doses.

HUDEP-2 cells = test: Cell viability assay (WST-8), HUDEP-2; type: cell-based, human; details: for cell viability in HUDEP-2 cells: control (0 μM) = 100
Experimental: (§1) A WST-8 (2-(2-methoxy-4-nitrophenyl)-3-(4-nitrophenyl)-5-(2,4-disulfophenyl)-2H-tetrazolium) assay using a Cell Counting Kit-8 (DOJINDO) was performed to measure cell viability using an EnSpire microplate reader (PerkinElmer).

[2] = Cell viability assay (WST-8), HUDEP-2; type: cell-based, human; details: human, HUDEP-2 cells, control (0 μM) = 100
Experimental: as §1

[3] = Parallel artificial membrane permeability assay (PAMPA); type: in vitro ADME
Experimental: Parallel artificial membrane permeability measurements were performed in duplicate with a Corning Gentest Pre-coated PAMPA Plate System according to the standard protocol of Corning Incorporated Life Sciences (Tewksbury).

Cc1c(C(=O)NC(CCC2CC2)C(=O)Nc2ccc(C#N)cc2)[nH]c2c1C(=O)CC(C)(C)C2 (stereo not shown) [RK-701]
IC50 (PRDM9; PRDM9, 1 μM SAM): > 100 µM
IC50 (PRDM9; PRDM9, RK-701 in duplicate): > 100 µM
IC50 (NSD2): > 100 µM
IC50 (DOT1L; 1 μM SAM): > 100 µM
IC50 (DOT1L; RK-701 in duplicate): > 100 µM
Number of reverants/plate ([1]; TA98, + S9, frameshift mutation, 4.88 μg/plate): 28
Number of reverants/plate ([1]; TA98, + S9, frameshift mutation, 19.5 μg/plate): 29 and 28
Number of reverants/plate ([1]; TA98, + S9, frameshift mutation, 78.1 μg/plate): 31 and 30
Number of reverants/plate ([1]; TA98, + S9, frameshift mutation, 313 μg/plate): 28
Number of reverants/plate ([1]; TA98, + S9, frameshift mutation, 1250* μg/plate): 32 and 28
Number of reverants/plate ([1]; TA98, + S9, frameshift mutation, 2500* μg/plate): 28
Number of reverants/plate ([1]; TA98, + S9, frameshift mutation, 5000* μg/plate): 28 and 23
Number of revertants/plate ([1]; TA98, +S9, 4.88 μg/plate): 28
Number of revertants/plate ([1]; TA98, +S9, 19.5 μg/plate): 29
Number of revertants/plate ([1]; TA98, +S9, 78.1 μg/plate): 31
Number of revertants/plate ([1]; TA98, +S9, 313 μg/plate): 28
Number of revertants/plate ([1]; TA98, +S9, 1250 μg/plate, insoluble material): 30
Number of revertants/plate ([1]; TA98, +S9, 2500 μg/plate, insoluble material): 28
Number of revertants/plate ([1]; TA98, +S9, 5000 μg/plate, insoluble material): 26
Number of reverants/plate ([1]; TA98, - S9, frameshift mutation, 4.88 μg/plate): 13 and 20
Number of reverants/plate ([1]; TA98, - S9, frameshift mutation, 19.5 μg/plate): 12 and 13
Number of reverants/plate ([1]; TA98, - S9, frameshift mutation, 78.1 μg/plate): 14 and 20
Number of reverants/plate ([1]; TA98, - S9, frameshift mutation, 313 μg/plate): 14 and 12
Number of reverants/plate ([1]; TA98, - S9, frameshift mutation, 1250* μg/plate): 11 and 12
Number of reverants/plate ([1]; TA98, - S9, frameshift mutation, 2500* μg/plate): 11 and 12
Number of reverants/plate ([1]; TA98, - S9, frameshift mutation, 5000* μg/plate): 13 and 16
Number of revertants/plate ([1]; TA98, -S9, 4.88 μg/plate): 17
Number of revertants/plate ([1]; TA98, -S9, 19.5 μg/plate): 13
Number of revertants/plate ([1]; TA98, -S9, 78.1 μg/plate): 17
Number of revertants/plate ([1]; TA98, -S9, 313 μg/plate): 13
Number of revertants/plate ([1]; TA98, -S9, 1250 μg/plate, insoluble material): 12
Number of revertants/plate ([1]; TA98, -S9, 2500 μg/plate, insoluble material): 12
Number of revertants/plate ([1]; TA98, -S9, 5000 μg/plate, insoluble material): 15
mutagenicity ([1]; TA98, regardless of metabolic activation): no mutagenicity
cell viability in HUDEP-2 cells (HUDEP-2 cells; 0.00457247 μM): 120.908 and 97.8824 and 118.228
cell viability in HUDEP-2 cells (HUDEP-2 cells; 0.0137174 μM): 97.2549 and 110.051
cell viability in HUDEP-2 cells (HUDEP-2 cells; 0.0411523 μM): 112.451 and 91.2941 and 106.985
cell viability in HUDEP-2 cells (HUDEP-2 cells; 0.123457 μM): 96.9412 and 105.622
cell viability in HUDEP-2 cells (HUDEP-2 cells; 0.37037 μM): 97.8824 and 103.918
cell viability in HUDEP-2 cells (HUDEP-2 cells; 1.11111 μM): 96.3137 and 96.4225
cell viability in HUDEP-2 cells (HUDEP-2 cells; 3.33333 μM): 88.1569 and 84.8382
cell viability in HUDEP-2 cells (HUDEP-2 cells; 10 μM): 78.4314 and 79.046
cytotoxic effect on viability (HUDEP-2 cells; HUDEP-2, 3 days): essentially no cytotoxic effect
viability at 0.0137174 μM ([2]; 0.0137174 μM): 99.9%
viability at 0.123457 μM ([2]; 0.123457 μM): 97.4%
viability at 0.37037 μM ([2]; 0.37037 μM): 99.9%
viability at 1.11111 μM ([2]; 1.11111 μM): 105%
viability at 3.33333 μM ([2]; 3.33333 μM): 94.3%
viability at 10 μM ([2]; 10 μM): 77.4%
cell permeability (PAMPA and Caco-2) [3]: decent cell permeability
Papp ([3]; PAMPA): 3.08 ± 1.47 ×10⁻⁶ cm/s
PAMPA ([3]; replicate values): 2.736e-6 and 5.393e-6 and 2.8861e-6 and 1.3122e-6
